Assay results taken from ChEMBL document CHEMBL3817813, “Exploiting the co-reliance of tumours upon transport of amino acids and lactate: Gln and Tyr conjugates of MCT1 inhibitors” (Medchemcomm, 2016).
Blank lines part the entries; values can stand above or below the compound they belong to. Calls of active or inactive are those of the source. The calls are words filed in the database; no cut-off is given here.

How the values were obtained:
[1] = Drug uptake in Sprague-Dawley rat kidney at 20 mg/kg, ip measured after 24 hrs by LC-MS/MS analysis; format: ADME, organism-based; conditions: read-out: Drug uptake
[2] = Drug uptake in Sprague-Dawley rat lung at 20 mg/kg, ip measured after 6 hrs by LC-MS/MS analysis; format: ADME, organism-based; conditions: read-out: Drug uptake
[3] = Drug uptake in Sprague-Dawley rat plasma at 20 mg/kg, ip measured after 24 hrs by LC-MS/MS analysis; format: ADME, organism-based
[4] = Drug uptake in Sprague-Dawley rat brain at 20 mg/kg, ip measured after 24 hrs by LC-MS/MS analysis; format: ADME, organism-based; conditions: read-out: Drug uptake
[5] = Drug uptake in Sprague-Dawley rat liver at 20 mg/kg, ip measured after 6 hrs by LC-MS/MS analysis; format: ADME, organism-based; conditions: read-out: Drug uptake
[6] = Drug uptake in Sprague-Dawley rat spleen at 20 mg/kg, ip measured after 7 days by LC-MS/MS analysis; format: ADME, organism-based; conditions: read-out: Drug uptake
[7] = Drug uptake in Sprague-Dawley rat kidney at 20 mg/kg, ip measured after 6 hrs by LC-MS/MS analysis; format: ADME, organism-based; conditions: read-out: Drug uptake
[8] = Drug uptake in Sprague-Dawley rat plasma at 20 mg/kg, ip measured after 6 hrs by LC-MS/MS analysis; format: ADME, organism-based
[9] = Drug uptake in Sprague-Dawley rat spleen at 20 mg/kg, ip measured after 24 hrs by LC-MS/MS analysis; format: ADME, organism-based; conditions: read-out: Drug uptake
[10] = Drug uptake in Sprague-Dawley rat spleen at 20 mg/kg, ip measured after 6 hrs by LC-MS/MS analysis; format: ADME, organism-based; conditions: read-out: Drug uptake
MDA-MB-231 = assay: Cytotoxicity against MCT1-deficient human MDA-MB-231 cells at 10 uM measured after 96 hrs by MTT assay; format: cell-based; conditions: mda-mb-231, 96 h
[11] = Drug uptake in Sprague-Dawley rat liver at 20 mg/kg, ip measured after 24 hrs by LC-MS/MS analysis; format: ADME, organism-based; conditions: read-out: Drug uptake
[12] = Drug uptake in Sprague-Dawley rat blood at 20 mg/kg, ip measured after 6 hrs by LC-MS/MS analysis; format: ADME, organism-based; conditions: whole blood, read-out: Drug uptake
[13] = Drug uptake in Sprague-Dawley rat lung at 20 mg/kg, ip measured after 24 hrs by LC-MS/MS analysis; format: ADME, organism-based; conditions: read-out: Drug uptake
[14] = Drug uptake in Sprague-Dawley rat blood at 20 mg/kg, ip measured after 24 hrs by LC-MS/MS analysis; format: ADME, organism-based; conditions: whole blood, read-out: Drug uptake
[15] = Drug uptake in Sprague-Dawley rat brain at 20 mg/kg, ip measured after 6 hrs by LC-MS/MS analysis; format: ADME, organism-based; conditions: read-out: Drug uptake
[16] = molecular target: T1, Monocarboxylate transporter 1 (Homo sapiens) (UniProt P53985); assay: Activity at MCT1 (unknown origin) using [14C]lactate by cell based lactate flux assay
T1 sequence (whole entry): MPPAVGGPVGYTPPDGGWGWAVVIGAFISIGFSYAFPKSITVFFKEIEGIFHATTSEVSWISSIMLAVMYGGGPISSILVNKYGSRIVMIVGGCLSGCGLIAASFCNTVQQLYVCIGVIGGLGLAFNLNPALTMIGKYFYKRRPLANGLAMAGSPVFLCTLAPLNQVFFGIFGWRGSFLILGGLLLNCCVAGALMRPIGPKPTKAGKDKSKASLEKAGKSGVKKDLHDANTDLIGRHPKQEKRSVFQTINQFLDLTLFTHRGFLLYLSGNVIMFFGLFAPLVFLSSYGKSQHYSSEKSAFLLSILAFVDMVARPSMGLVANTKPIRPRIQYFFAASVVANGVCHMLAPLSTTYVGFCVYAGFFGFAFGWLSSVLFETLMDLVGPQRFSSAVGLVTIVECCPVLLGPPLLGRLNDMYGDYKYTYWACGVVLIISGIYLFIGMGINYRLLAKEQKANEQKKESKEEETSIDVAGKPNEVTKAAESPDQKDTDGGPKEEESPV

[17] = Drug uptake in NOD/SCID mouse tumor measured after 24 hrs; format: ADME, Neoplasm; conditions: read-out: Drug uptake
[18] = Drug uptake in Sprague-Dawley rat blood at 20 mg/kg, ip measured after 7 days by LC-MS/MS analysis; format: ADME, organism-based; conditions: whole blood, read-out: Drug uptake
[19] = Drug uptake in Sprague-Dawley rat brain at 20 mg/kg, ip measured after 7 days by LC-MS/MS analysis; format: ADME, organism-based; conditions: read-out: Drug uptake
[20] = Drug uptake in Sprague-Dawley rat kidney at 20 mg/kg, ip measured after 7 days by LC-MS/MS analysis; format: ADME, organism-based; conditions: read-out: Drug uptake
[21] = Drug uptake in Sprague-Dawley rat plasma at 20 mg/kg, ip measured after 7 days by LC-MS/MS analysis; format: ADME, organism-based
[22] = Drug uptake in Sprague-Dawley rat liver at 20 mg/kg, ip measured after 7 days by LC-MS/MS analysis; format: ADME, organism-based; conditions: read-out: Drug uptake
[23] = Drug uptake in Sprague-Dawley rat lung at 20 mg/kg, ip measured after 7 days by LC-MS/MS analysis; format: ADME, organism-based; conditions: read-out: Drug uptake

concentration at 24 h [1]: 160 nM | concentration at 6 h [2]: 61 nM | concentration at 24 h [3]: 4 nM | concentration at 24 h [4]: 270 nM | concentration at 6 h [5]: 63 nM | concentration at 168 h [6]: 43 nM | concentration at 6 h [7]: 120 nM | concentration at 6 h [8]: 27 nM | concentration at 24 h [9]: 420 nM | concentration at 6 h [10]: 740 nM | concentration at 24 h [11]: 60 nM | concentration at 6 h [12]: 140 nM | concentration at 24 h [13]: 74 nM | concentration at 24 h [14]: 63 nM | concentration at 6 h [15]: 190 nM
SMILES: CC(C)Cc1nn(C)c(=O)c2c(SCCCO)n(Cc3cccc4ccccc34)cc12
Activity (MDA-MB-231): Non-toxic

SMILES: CC(C)Cc1nn(C)c(=O)c2c(SCCCO)n(Cc3ccc(Cl)nc3)cc12
Activity (MDA-MB-231): Non-toxic

SMILES: CC(C)Cc1nn(C)c(=O)c2c(SCCCO)n(Cc3cc(Cl)nc4ccccc34)cc12
Activity (MDA-MB-231): Non-toxic

SMILES: CC(C)Cc1nn(C)c(=O)c2c(SCCCO)n(Cc3ccnc(Cl)c3)cc12
Activity (MDA-MB-231): Non-toxic

SMILES: CC(C)Cc1nn(C)c(=O)c2c(SCCCO)n(Cc3ccc(Br)c4ccccc34)cc12
Activity (MDA-MB-231): Non-toxic

SMILES: CC(C)Cc1nn(C)c(=O)c2c(SCCCO)n(Cc3ccc(NCCCCCN)nc3)cc12
Activity (MDA-MB-231): Non-toxic

SMILES: CC(C)Cc1nn(C)c(=O)c2c(SCCCO)n(Cc3ccnc(NCCCCCNC(=O)[C@@H](N)CCC(N)=O)c3)cc12
Activity (MDA-MB-231): Non-toxic

SMILES: CC(C)Cc1nn(C)c(=O)c2c(SCCCO)n(Cc3cnc(NCCCCCN)c4ccccc34)cc12
Activity (MDA-MB-231): Non-toxic

Activity [16]: Active
SMILES: CC(C)Cc1nn(C)c(=O)c2c(SCCCO)n(Cc3cnc(NCCCCCNC(=O)[C@@H](N)CCC(N)=O)c4ccccc34)cc12
Activity (MDA-MB-231): Non-toxic

SMILES: CC(C)Cc1nn(C)c(=O)c2c(SCCCO)n(Cc3ccc(NCCCCCNC(=O)[C@@H](N)CCC(N)=O)nc3)cc12
Activity (MDA-MB-231): Non-toxic

SMILES: CC(C)Cc1nn(C)c(=O)c2c(SCCCO)n(Cc3cc(NCCCCCNC(=O)[C@@H](N)CCC(N)=O)nc4ccccc34)cc12
Activity (MDA-MB-231): Non-toxic

Activity [16]: Active
SMILES: CC(C)Cc1nn(C)c(=O)c2c(SCCCO)n(Cc3ccc(C#CCCCNC(=O)[C@@H](N)CCC(N)=O)c4ccccc34)cc12
Activity (MDA-MB-231): Non-toxic

SMILES: CC(C)Cc1nn(C)c(=O)c2c(SCCCO)n(Cc3cc(NCCCCCN)nc4ccccc34)cc12
Activity (MDA-MB-231): Non-toxic

SMILES: CC(C)Cc1nn(C)c(=O)c2c(SCCCO)n(Cc3cnc(Cl)c4ccccc34)cc12
Activity (MDA-MB-231): Non-toxic

SMILES: CC(C)Cc1nn(C)c(=O)c2c(SCCCO)n(Cc3ccnc(NCCCCCN)c3)cc12
Activity (MDA-MB-231): Non-toxic

concentration at 24 h [1]: 960 nM | concentration at 6 h [2]: 1540 nM | concentration at 24 h [3]: 12 nM | concentration at 24 h [4]: 62 nM | concentration at 6 h [5]: 2500 nM | concentration at 168 h [6]: 190 nM | concentration at 6 h [7]: 1620 nM | concentration at 24 h [17]: 300 nM | concentration at 168 h [18]: 41 nM | concentration at 6 h [8]: 3270 nM | concentration at 168 h [19]: 43 nM | concentration at 24 h [9]: 1060 nM | concentration at 6 h [10]: 2260 nM | concentration at 24 h [11]: 940 nM | Activity [16]: Active | concentration at 6 h [12]: 4330 nM | concentration at 168 h [20]: 210 nM | concentration at 168 h [21]: 4 nM | concentration at 24 h [13]: 520 nM | concentration at 168 h [22]: 98 nM | concentration at 24 h [14]: 76 nM | concentration at 6 h [15]: 110 nM | concentration at 168 h [23]: 110 nM
SMILES: CC(C)Cc1nn(C)c(=O)c2c(SCCCO)n(Cc3ccc(C#CCCCOc4ccc(C[C@H](N)C(=O)O)cc4)c4ccccc34)cc12
Activity (MDA-MB-231): Non-toxic
